Results published in ChEMBL document CHEMBL1122462, “Potential antiatherosclerotic agents. 4. [(Functionalized-alkyl)amino]benzoic acid analogues of cetaben” (1983).
“And” between values parts separate entries of the source, which are not always exact repeats. Equal entries are not always repeated.

Key:
Rattus norvegicus [1] = test: In vivo sterol lowering activity at dose of 0.10 % of the diet; assay type: functional
Rattus norvegicus [2] = test: In vivo Triglyceride lowering activity at a dose of 0.10 % of the diet; assay type: functional
Rattus norvegicus [3] = test: In vivo Sterol lowering activity at dose as 0.01% of the diet; assay type: functional
Rattus norvegicus [4] = test: In vivo Triglyceride lowering activity at dose as 0.03 % of the diet; assay type: functional
Rattus norvegicus [5] = test: In vivo sterol lowering activity, dosed as 0.03 % of the diet; assay type: functional
Rattus norvegicus [6] = test: In vivo Triglyceride lowering activity at dose as 0.01 % of the diet; assay type: functional
[7] = target: T1, Sterol O-acyltransferase 1 (Rattus norvegicus) (UniProt O70536); test: In vitro inhibitory activity against acyl coenzyme A:cholesterol acyltransferase; parameters: concentration or dose not given beside the values; settings: concentration not given here
T1 sequence (whole entry): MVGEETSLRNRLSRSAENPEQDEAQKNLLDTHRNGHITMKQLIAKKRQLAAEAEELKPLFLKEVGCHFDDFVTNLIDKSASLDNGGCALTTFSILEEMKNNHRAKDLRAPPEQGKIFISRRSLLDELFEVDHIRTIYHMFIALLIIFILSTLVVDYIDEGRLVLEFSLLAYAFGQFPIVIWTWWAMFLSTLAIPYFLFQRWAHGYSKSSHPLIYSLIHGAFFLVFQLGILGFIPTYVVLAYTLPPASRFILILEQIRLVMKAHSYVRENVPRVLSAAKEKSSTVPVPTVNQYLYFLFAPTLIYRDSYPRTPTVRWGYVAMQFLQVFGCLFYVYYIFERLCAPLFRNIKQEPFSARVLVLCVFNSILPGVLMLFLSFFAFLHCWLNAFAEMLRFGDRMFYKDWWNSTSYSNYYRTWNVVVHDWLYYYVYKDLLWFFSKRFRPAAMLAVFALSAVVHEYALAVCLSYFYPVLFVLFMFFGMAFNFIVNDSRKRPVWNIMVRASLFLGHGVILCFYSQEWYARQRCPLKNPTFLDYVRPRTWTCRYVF

SMILES | inhibition [7] | serum sterol level, % of control (Rattus norvegicus [1]) | serum triglyceride level (% of control) (Rattus norvegicus [2]) | serum sterol level, percent of control (Rattus norvegicus [3]) | triglyceride lowering activity (Rattus norvegicus [4]) | serum sterol level, percent of control (Rattus norvegicus [5]) | serum triglyceride level (% of control) (Rattus norvegicus [6])
C[Si](C)(C)CCCCCCCCCCCCCCNc1ccc(C(=O)[O-])cc1.[Na+] | – | <39% | <22% | 75% | <43% | <56% | <55%
CCCCCCCCCCCCCCCCN(CS(=O)(=O)O)c1ccc(C(=O)O)cc1 | 7% and < 32% | – | – | – | – | – | –
COC(=O)c1ccc(NC(=O)CCCCCCCCCCOc2ccc(C(=O)OC)cc2)cc1 | < 63% | 94% | 118% | – | – | – | –
CCCCCCCCCCCCCCCCN(CS(=O)(=O)[O-])c1ccc(C(=O)O)cc1.[Na+] | – | <72% | <49% | 91% | <57% | <87% | 79%
CCOC(=O)c1ccc(N(CCCCCCCCCCCBr)C(=O)OCc2ccccc2)cc1 | < 71% | 100% | 91% | – | – | – | –
CC(C)(C)CCCCCCCCCCCCCCNc1ccc(C(=O)O)cc1 [listing 1 of 2 here] | – | <48% | <20% | <69% | <42% | <53% | <59%
CCOC(=O)c1ccc(NCCCCCCCCCCCNc2ccc(C(=O)OCC)cc2)cc1 | < 68% | 92% | 67% | – | – | – | –
O=C(O)c1ccc(NCCCCCCCCCCCSc2ccc(C(=O)O)cc2)cc1 | < 29% | 98% | 78% | – | 92% | 104% | –
CCOC(=O)c1ccc(NCCCCCCCCCCCOc2ccc(C(=O)OC)cc2)cc1 | < 52% | 100% | <72% | – | – | – | –
O=C(O)c1ccc(NCCCCCCCCCCCCCCCC(F)(F)F)cc1 | – | <61% | <42% | <75% | <41% | <72% | <46%
CCOC(=O)c1ccc(NCCCCCCCCCCCC2CCCCC2)cc1 | 12% | 80% | <50% | – | – | – | –
C[Si](C)(C)CCCNc1ccc(C(=O)O)cc1 [listing 1 of 2 here] | – | <82% | <47% | 100% | <58% | 90% | <69%
CCOC(=O)c1ccc(NCCCCCCCCCCCCNc2ccc(C(=O)OCC)cc2)cc1 | 2% | 103% | <68% | – | – | – | –
C[Si](C)(C)CCCCCCCCCCCCCCNc1ccc(C(=O)O)cc1 [listing 1 of 2 here] | – | <40% | <30% | <70% | <38% | <51% | <59%
CCOC(=O)c1ccc(NCCCCCCCCCCNc2ccc(C(=O)OCC)cc2)cc1 | 7% | 140% | 98% | – | – | – | –
CCOC(=O)c1ccc(NC(=O)C(F)(F)C(F)(F)C(F)(F)C(F)(F)C(F)(F)C(F)(F)C(F)(F)F)cc1 | 0% | <69% | – | <68% | <43% | <73% | <61%
CCCCSCCCCCCCCCCC(=O)Nc1ccc(C(=O)OC)cc1 | < 56% | 92% | 81% | – | – | – | –
COCCCCCCCCCCCCCCCCN(C(C)=O)c1ccc(C(=O)O)cc1 | < 22% | 100% | 93% | – | – | – | –
C[Si](C)(C)CCCNc1ccc(C(=O)O)cc1 [listing 2 of 2 here] | < 23% and 12% | – | – | – | – | – | –
CCOC(=O)c1ccc(NCCCCCCCCCCCSc2ccc(C(=O)OCC)cc2)cc1 | < 45% | 102% | 132% | – | – | – | –
Br.CCOC(=O)c1ccc(NC(=O)CCCCCCCCCCSC(=N)N)cc1 | < 91% | 92% | 96% | – | – | – | –
CCOC(=O)c1ccc(NCCCCCCCCCCCCCCCCSCC)cc1 | < 10% | <89% | <58% | – | – | – | –
CCOC(=O)c1ccc(NC(=O)CCCCCCCCCCBr)cc1 | < 71% | 115% | 100% | – | – | – | –
CCCCCCCCCCCCCCCC(=O)Nc1ccc(C(=O)OCC)cc1 | – | 91% | – | – | – | – | –
O=C(O)c1ccc(N2CCCC2=O)cc1 | 0% | – | – | – | – | – | –
O=C(O)c1ccc(NCCCCCCCCCCNc2ccc(C(=O)O)cc2)cc1 | 8% | 93% | 100% | – | – | – | –

The next lines start with results.

inhibition [7] | SMILES | serum sterol level, % of control (Rattus norvegicus [1]) | serum triglyceride level (% of control) (Rattus norvegicus [2]) | serum sterol level, percent of control (Rattus norvegicus [3]) | triglyceride lowering activity (Rattus norvegicus [4]) | serum sterol level, percent of control (Rattus norvegicus [5]) | serum triglyceride level (% of control) (Rattus norvegicus [6])
< 26% | CCCCCCCCCCC(CCCCCNc1ccc(C(=O)OCC)cc1)SC(C)=O (stereo unspecified) | 94% | <46% | – | – | – | –
0% and 9% | O=C(O)CCCCCCCCCCCCCCCNc1ccc(C(=O)O)cc1 | – | – | – | – | – | –
< 59% | CCCCCCCCCCC(C)(O)CCCCCNc1ccc(C(=O)OCC)cc1 (stereo unspecified) | <82% | <28% | – | – | – | –
< 60% | O=C(O)c1ccc(NCCCCCCCCCCCCNc2ccc(C(=O)O)cc2)cc1 | 103% | 89% | – | – | – | –
< 51% | CCCCCCCCCCC(O)CCCCCNc1ccc(C(=O)OCC)cc1 (stereo unspecified) | 93% | <39% | – | – | – | –
8% | CCOC(=O)c1ccc(NCCCCCCCCCCCCCCCCS)cc1 | 90% | <51% | – | – | – | –
< 60% | C[Si](C)(C)CCCCCCCCCCCCCCNc1ccc(C(=O)O)cc1 [listing 2 of 2 here] | – | – | – | – | – | –
< 74% | CC(C)(C)CCCCCCCCCCCCCCNc1ccc(C(=O)O)cc1 [listing 2 of 2 here] | – | – | – | – | – | –
< 62% | CCCCOCCCCCCCCCCCNc1ccc(C(=O)O)cc1 | 91% | <44% | <86% | – | – | 74%
< 53% | CCCCCCCCCCC(C)(O)CCCCCNc1ccc(C(=O)O)cc1 (stereo unspecified) | <73% | <37% | – | – | – | –
< 79% | CCCCCCCCCCC(S)CCCCCNc1ccc(C(=O)O)cc1 (stereo unspecified) | 84% | <43% | – | – | – | –
< 60% | CCOC(=O)c1ccc(NCCCCCCCCCCCO)cc1 | 94% | 93% | – | – | – | –
< 56% | C[Si](C)(C)CCCCCCCCCCCNc1ccc(C(=O)O)cc1 | – | – | – | – | – | –
